This note sets out measurements from patent US20040002441A1, “Recombination modulators and methods for producing and using the same” (priority 2000, published 2004).

Where no end group is shown, it is not given here.

Assay [1] concerns the target T1, bacteriophage λ Integrase (Int) (Escherichia phage lambda, UniProt P03700).
T1 sequence (P03700 1-356): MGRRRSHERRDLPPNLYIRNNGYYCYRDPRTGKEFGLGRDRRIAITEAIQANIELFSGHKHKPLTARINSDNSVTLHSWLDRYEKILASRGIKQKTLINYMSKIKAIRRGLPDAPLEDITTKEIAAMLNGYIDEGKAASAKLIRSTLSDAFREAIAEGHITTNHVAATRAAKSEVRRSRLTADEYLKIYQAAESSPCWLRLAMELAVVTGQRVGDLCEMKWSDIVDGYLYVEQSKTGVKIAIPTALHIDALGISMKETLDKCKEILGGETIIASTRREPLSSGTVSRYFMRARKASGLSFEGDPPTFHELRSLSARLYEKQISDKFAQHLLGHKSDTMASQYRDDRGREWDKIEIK
The assay can be described thus: Int-mediated straight-L recombination. It is filed as biochemical. The procedure:
(§1) FIG. 11 depicts effect of peptide KWWCRW (diamonds) and peptide KWWWRW (squares) on the remaining 3 pathways of Int-mediated recombination. Recombination extents were normalized to the amount of recombination in untreated reactions and expressed as relative % recombination. A. Effect of peptides on integrative recombination (IC50 values for both peptides are roughly 0.2 μM). Reactions were assembled as for bent-L recombination except that they were incubated at room temperature, the substrates were a supercoiled plasmid (4.8 kb) carrying attP and ^32P labeled 91 bp PCR fragment encoding attB. […] The recombination substrates were PCR fragments encoding the attL (^32P-labeled) and attR sites. Reactions contained 50 NM Xis in addition to Int and IHF (37 nM), as well as 100 ng salmon sperm DNA, and were incubated at room temperature. C. Effect of peptides on straight-L recombination (IC50 values for peptide KWWCRW is 0.06 μM, while for peptide KWWWRW is slightly over 0.1 μM). Reactions were assembled as for bent-L recombination except that they were incubated at room temperature; the substrates were two PCR fragments, one of which was ^32P-labeled and 187 bp, the other of which was unlabeled and 496 bp.
(§2) Int Assays. […] Dried gels were visualized and quantitated using a Molecular Dynamics PhosphorImager.

For assay [2], the target named is T2, bacteriophage λ Integrase (Int) (Escherichia phage lambda, UniProt P03700).
T2 sequence (P03700 1-356): T1 sequence (P03700 1-356)
T2 sequence (P0A6X7 1-99 partner): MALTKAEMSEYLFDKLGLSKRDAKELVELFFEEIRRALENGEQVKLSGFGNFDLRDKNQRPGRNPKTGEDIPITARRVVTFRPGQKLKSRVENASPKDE
T2 sequence (P0A6Y1 1-94 partner): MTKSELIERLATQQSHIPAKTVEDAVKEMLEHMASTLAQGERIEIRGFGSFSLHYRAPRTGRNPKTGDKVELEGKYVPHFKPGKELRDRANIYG
The assay can be described thus: Int-mediated integrative recombination. In kind it is biochemical. The settings on record: IC50, inhibition of integrative recombination, integration pathway. The procedure: as §1, §2

Assay [3] has as its target restriction enzymes with unique sites in pUC19. The assay can be described thus: Restriction enzyme assays, all enzymes tested. In kind it is biochemical. The protocol: Restriction enzyme assays. Restriction digests were performed as specified and the products were separated on 0.8% agarose gels electrophoresed at 80-90V in 1× Tris borate EDTA buffer. Gels were photographed, scanned and quantitated using NIH Image v.1.55, as recommended in the instruction manual.

Assay [4] has as its target T1, bacteriophage λ Integrase (Int). The assay can be described thus: Formation of covalent protein-DNA complexes (CPDs) by Int. In kind it is biochemical. The text has this:
Int, like its relative tyrosine recombinases, makes transient covalent protein-DNA complexes (CPDs) during the cleavage stage of the recombination reaction. […] Since these complexes are the product of DNA cleavage by Int prior to strand exchange or ligation, we tested the effect of peptide KWWCRW on their formation. The peptide inhibited accumulation of both attL and attR CPDs by 65-75% (data not shown), supporting our model that KWWCRW blocks recombination by interfering with the cleavage step of the reaction.

The subject of assay [5] is T4 topoisomerase (type II). The assay is described as follows: T4 topoisomerase DNA relaxation assay. It is filed as biochemical, bacteriophage T4. To be noted: for effect on DNA relaxation: 100 μM peptide. The procedure: T4 topoisomerase assays. Reactions were performed as described (Huff and Kreuzer, 1990) using 30 or 60 ng of enzyme and 200 ng of supercoiled pUC19 per reaction. The products were electrophoresed on 0.8% agarose gels at 40V in 0.5× Tris borate EDTA buffer for about 6 hours. The gel was then stained with EtBr for viewing.

For assay [6], the target named is T3, vaccinia topoisomerase (Vaccinia virus, UniProt P68698).
T3 construct: made in house; host or cells: Escherichia coli BL21 infected with bacteriophage λCE6
The assay can be described thus: Gel shift of noncovalent topoisomerase-DNA complex (60-bp duplex with CCCTT site). In kind it is binding. The settings on record: 0.72 to 1.8 μM peptide. An excerpt: To test whether the peptide interferes with the noncovalent association of topoisomerase with the DNA, we assayed the effects of the peptides on the binding of vaccinia topoisomerase to a radiolabeled 60-bp duplex DNA containing a single central CCCTT recognition site. In contrast to the suicide substrate, for which all bound enzymes are trapped in the covalent state, only about 20% of the fully double-stranded DNA molecules that are bound will be linked covalently to the protein (Wittschieben and Shuman, 1997).

With KWWWRW-NH2 [Peptide 56, KWWWRW], the values for the IC50 in assay [1] and in assay [2] were > 100 nM and ~200 nM, respectively.
KWWCRW-NH2 [Peptide 59, KWWCRW]: the concentration for half-maximal inhibition (IC50) in assay [3] is ~40000 nM; in assay [5] (supercoiled pUC19) it was 40000 nM; in assay [1], 60 nM; in assay [2] it was 300 nM. Besides, the “inhibition of accumulation of attL and attR CPDs” value in assay [4] was 65-75%. Also, the “effect on DNA relaxation” value in assay [5] is recorded as “blocked it completely”. Moreover, in assay [6], the “effect on formation of the noncovalent topoisomerase-DNA complex” value is reported as “did not inhibit”.
On to WKHYNY-NH2 [Peptide 52, WKHYNY], for which the “effect on DNA relaxation” value in assay [5] is “no effect”.
